# Test results as given in patent US12319655B2, “RAF kinase inhibitors and methods of use thereof” (Deciphera Pharmaceuticals, LLC, priority 2021, dated 2025).
# Like-named read-outs stand apart in the source and are kept apart here.
# Experiments:
# [1] = molecular target: A-Raf kinase (SEQ. ID No: 1) (Homo sapiens (Human), UniProt P10398, Y301D/Y302D); test: Biochemical Assay for A-Raf (1); settings: Table J
# Procedure: Biochemical Assay for A-Raf (1)
# (§1) Activity of A-Raf kinase (SEQ. ID No: 1) was determined spectroscopically using a coupled pyruvate kinase/lactate dehydrogenase assay that continuously monitors the ATP hydrolysis-dependent oxidation of NADH (e.g., Schindler et al., Science, 2000, 289, 1938-1942). Assays were conducted in 384-well plates (100 μL final volume) using 5.55 nM A-Raf (Sigma), 1.5 units pyruvate kinase, 2.1 units lactate dehydrogenase, 1 mM phosphoenol pyruvate, 0.28 mM NADH, 30.1 nM MEK (SignalChem), and 1 mM ATP in assay buffer (100 mM Tris, pH 7.5, 15 mM MgCl2, 0.5 mM DTT, 0.1% octyl-glucoside, 0.002% (w/v) BSA, and 0.002% Triton X-100). Inhibition of A-Raf was measured by adding serial diluted test compound (final assay concentration of 1% DMSO). A decrease in absorption at 340 nm was monitored continuously for 6 h at 30° C. on a multi-mode microplate reader (BioTek). The reaction rate was calculated using the 4 to 5 h time frame. The reaction rate at each concentration of compound was converted to percent inhibition using controls (i.e., reaction with no test compound and reaction with a known inhibitor) and IC50 values were calculated by fitting a four-parameter sigmoidal curve to the data using Prism (GraphPad software).
# [2] = molecular target: B-Raf kinase (SEQ. ID NO: 2) (Homo sapiens (Human), UniProt P15056); test: Biochemical Assay for B-Raf (1); settings: Table J
# Sequence of B-Raf kinase (SEQ. ID NO: 2) (P15056 416-766): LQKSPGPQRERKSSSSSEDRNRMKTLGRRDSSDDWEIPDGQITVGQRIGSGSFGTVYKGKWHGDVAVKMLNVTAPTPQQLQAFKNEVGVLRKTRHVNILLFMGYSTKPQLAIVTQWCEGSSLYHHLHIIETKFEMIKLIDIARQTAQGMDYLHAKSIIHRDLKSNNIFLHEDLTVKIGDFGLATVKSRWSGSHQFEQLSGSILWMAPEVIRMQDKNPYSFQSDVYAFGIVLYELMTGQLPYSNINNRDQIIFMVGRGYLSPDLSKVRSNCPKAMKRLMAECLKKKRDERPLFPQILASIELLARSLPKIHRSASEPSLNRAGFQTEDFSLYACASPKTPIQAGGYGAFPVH
# Procedure: Biochemical Assay for B-Raf (1)
# as §1, with “B-Raf” for “A-Raf”, “NO: 2)” for “No: 1)”, “0.13” for “5.55”, “Ph” for “pH”
# [3] = molecular target: C-Raf kinase (SEQ. ID NO: 3) (Homo sapiens (Human), UniProt P04049, Y340D/Y341D); test: Biochemical Assay for C-Raf (1); settings: Table J
# Sequence of C-Raf kinase (SEQ. ID NO: 3) (P04049 307-648 Y340D/Y341D): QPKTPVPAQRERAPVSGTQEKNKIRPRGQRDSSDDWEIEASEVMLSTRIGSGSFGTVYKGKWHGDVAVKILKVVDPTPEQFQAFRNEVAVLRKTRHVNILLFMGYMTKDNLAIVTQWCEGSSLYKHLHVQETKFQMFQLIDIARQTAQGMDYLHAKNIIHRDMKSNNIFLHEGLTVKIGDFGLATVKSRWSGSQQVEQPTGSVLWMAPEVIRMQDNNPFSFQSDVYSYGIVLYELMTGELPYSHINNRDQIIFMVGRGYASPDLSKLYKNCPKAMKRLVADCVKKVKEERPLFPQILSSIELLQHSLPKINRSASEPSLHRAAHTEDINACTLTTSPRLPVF
# Procedure: Biochemical Assay for C-Raf (1)
# as §1, with “C-Raf” for “A-Raf”, “NO: 3)” for “No: 1)”, “0.43” for “5.55”, “Ph” for “pH”
# [4] = molecular target: B-Raf (V600E) (SEQ. ID NO: 4) kinase (Homo sapiens (Human), UniProt P15056, V600E); test: Biochemical Assay for B-Raf (V600E) (1); settings: Table J, BRAF V600E
# Sequence of B-Raf (V600E) (SEQ. ID NO: 4) kinase (P15056 416-766 V600E): as the sequence (P15056 416-766) above, with V185E counted along it
# Procedure: Biochemical Assay for B-Raf (V600E) (1)
# Activity of B-Raf (V600E) (SEQ. ID NO: 4) kinase was determined spectroscopically using a coupled pyruvate kinase/lactate dehydrogenase assay that continuously monitors the ATP hydrolysis-dependent oxidation of NADH (e.g., Schindler et al., Science, 2000, 289, 1938-1942). Assays were conducted in 384-well plates (100 μL final volume) using 0.03 nM B-Raf (SignalChem), 1.5 units pyruvate kinase, 2.1 units lactate dehydrogenase, 1 mM phosphoenol pyruvate, 0.28 mM NADH, 30.1 nM MEK (SignalChem), and 1 mM ATP in assay buffer (100 mM Tris, Ph 7.5, 15 mM MgCl2, 0.5 mM DTT, 0.1% octyl-glucoside, 0.002% (w/v) BSA, and 0.002% Triton X-100). Inhibition of B-Raf (V600E) was measured by adding serial diluted test compound (final assay concentration of 1% DMSO). A decrease in absorption at 340 nm was monitored continuously for 6 h at 30° C. on a multi-mode microplate reader (BioTek). The reaction rate was calculated using the 3 to 4 h time frame. The reaction rate at each concentration of compound was converted to percent inhibition using controls (i.e., reaction with no test compound and reaction with a known inhibitor) and IC50 values were calculated by fitting a four-parameter sigmoidal curve to the data using Prism (GraphPad software).
# A375 cells = test: A375 Cell Proliferation Assay (1); format: cell-based; settings: Homo sapiens, A-375
# Procedure: A375 Cell Proliferation Assay (1)
# A375 cells (catalog (#CRL-1619) are obtained from the American Type Culture Collect (ATTC, Manassas, VA). Briefly, cells were grown in DMEM High Glucose supplemented with 10% characterized fetal bovine serum (Invitrogen, Carlsbad, CA) and 1% Penicillin/Streptomycin/L-Glutamine at 37° C., 5% CO2, and 95% humidity. Cells are expanded until reaching 70-95% confluency at which point they are sub-cultured or harvested for assay use. A serial dilution of test compound is dispensed into a 96-well black clear bottom plate in triplicate. Two thousand five hundred cells are added per well in 200 μL complete growth medium in the 96-well plate. Plates are incubated for 67-72 h at 37° C., 5% CO2, and 95% humidity. At the end of the incubation, 40 μL of a 440 μM solution of resazurin (Sigma, St. Louis, MO) in PBS is added to each well of the plate and plates are incubated for an additional 5-6 h at 37° C., 5% CO2, and 95% humidity. Plates are read on a Synergy2 or equivalent reader (Biotek, Winooski VT) using an excitation of 540 nm and an emission of 600 nm. Data is analyzed using Prism software (GraphPad, San Diego, CA) to calculate IC50 values.
# [5] = assay version (1), read-out: ARAF (1) IC50
# [6] = assay version (1), read-out: BRAF (1) IC50
# [7] = assay version (1), read-out: CRAF (1) IC50
# [8] = assay version (1), read-out: BRAF VE (1) IC50
# [9] = biochemical assay (1), read-out: ARAF (1)
# [10] = biochemical assay (1), read-out: BRAF (1)
# [11] = biochemical assay (1), read-out: CRAF (1)
# [12] = biochemical assay (1), read-out: BRAF VE (1)
# Sequence of A-Raf kinase (SEQ. ID No: 1) (P10398 other isoform, or with tags, fused parts or gaps Y301D (already in the parent)/Y302D (already in the parent)): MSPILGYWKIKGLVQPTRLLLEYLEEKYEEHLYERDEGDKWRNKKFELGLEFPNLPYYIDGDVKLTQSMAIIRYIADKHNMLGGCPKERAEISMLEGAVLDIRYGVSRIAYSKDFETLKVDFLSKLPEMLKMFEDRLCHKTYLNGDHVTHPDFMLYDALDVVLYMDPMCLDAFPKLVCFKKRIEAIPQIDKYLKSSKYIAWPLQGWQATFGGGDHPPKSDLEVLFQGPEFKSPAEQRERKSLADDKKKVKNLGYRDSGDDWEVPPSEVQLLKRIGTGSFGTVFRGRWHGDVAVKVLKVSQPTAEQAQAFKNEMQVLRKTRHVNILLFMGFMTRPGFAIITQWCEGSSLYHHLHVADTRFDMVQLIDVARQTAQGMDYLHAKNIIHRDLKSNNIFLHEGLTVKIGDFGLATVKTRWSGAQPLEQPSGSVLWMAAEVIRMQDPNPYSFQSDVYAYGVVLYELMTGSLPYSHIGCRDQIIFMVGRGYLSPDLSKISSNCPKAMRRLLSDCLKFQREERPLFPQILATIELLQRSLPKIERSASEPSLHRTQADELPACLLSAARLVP
Compound,"IC50 [1, 5] [nM]","IC50 [2, 6] [nM]","IC50 [3, 7] [nM]","IC50 [4, 8] [nM]",IC50 (A375 cells) [nM],"IC50 [1, 9] [nM]","IC50 [2, 10] [nM]","IC50 [3, 11] [nM]","IC50 [4, 12] [nM]"
Cc1ccc(NC(=O)C2CCN(C)C2)cc1-c1cccc(-c2cc(NC(=O)C3CC3)ncn2)c1 (stereo not drawn) [Example 344],1000 to 10000,1000 to 10000,500 to 1000,100 to 500,–,–,–,–,–
Cc1ccc(NC(=O)C2CCOC2)cc1-c1cccc(-c2cc(NC(=O)C3CC3)ncn2)c1 (stereo not drawn) [Example 345],1000 to 10000,1000 to 10000,100 to 500,≤ 100,–,–,–,–,–
Cc1ncc(NC(=O)C2CCOCC2)cc1-c1cccc(-c2cc(NC(=O)C3CC3)ncn2)c1 [Example 349],1000 to 10000,1000 to 10000,500 to 1000,100 to 500,–,–,–,–,–
Cc1ncc(NC(=O)C2CNCCO2)cc1-c1cccc(-c2cc(NC(=O)C3CC3)ncn2)c1 (stereo not drawn) [Example 350],1000 to 10000,1000 to 10000,1000 to 10000,1000 to 10000,–,–,–,–,–
Cc1ncc(NC(=O)C2CCN(C)C2)cc1-c1cccc(-c2cc(NC(=O)C3CC3)ncn2)c1 (stereo not drawn) [Example 351],1000 to 10000,1000 to 10000,1000 to 10000,500 to 1000,–,–,–,–,–
Cc1ncc(NC(=O)C2CCOC2)cc1-c1cccc(-c2cc(NC(=O)C3CC3)ncn2)c1 (stereo not drawn) [Example 352],1000 to 10000,1000 to 10000,1000 to 10000,500 to 1000,–,–,–,–,–
Cc1ncc(NC(=O)CN2CCOCC2)cc1-c1cccc(-c2cc(NC(=O)C3CC3)ncn2)c1 [Example 353],1000 to 10000,1000 to 10000,500 to 1000,100 to 500,–,–,–,–,–
Cc1ncc(NC(=O)CC2CC(F)(F)C2)cc1-c1nccc(-c2ccnc(NC(=O)C3CC3)c2)n1 [Example 354],1000 to 10000,500 to 1000,100 to 500,≤ 100,–,–,–,–,–
Cc1ncc(NC(=O)CC2COC2)cc1-c1nccc(-c2ccnc(NC(=O)C3CC3)c2)n1 [Example 355],1000 to 10000,1000 to 10000,1000 to 10000,1000 to 10000,–,–,–,–,–
Cc1ncc(NC(=O)CC2COC2)cc1-c1cccc(-c2cc(NC(=O)C3CC3)ncn2)c1 [Example 356],1000 to 10000,1000 to 10000,1000 to 10000,500 to 1000,–,–,–,–,–
COC(=O)Nc1cc(-c2cnnc(-c3cc(NC(=O)c4ccnc(C(C)(C)C#N)c4)ccc3F)c2)ccn1 [Example 390],–,–,–,–,–,1000 to 10000,≤ 100,≤ 100,100 to 500
Cc1ccc(NC(=O)Cn2cc(C(C)C)nn2)cc1-c1cncc(-c2cc(N)ncn2)c1 [Example 426],–,–,–,–,–,1000 to 10000,1000 to 10000,500 to 1000,1000 to 10000

# Further lines, results first:
"IC50 [1, 5] [nM]","IC50 [2, 6] [nM]","IC50 [3, 7] [nM]","IC50 [4, 8] [nM]",IC50 (A375 cells) [nM],"IC50 [1, 9] [nM]","IC50 [2, 10] [nM]","IC50 [3, 11] [nM]","IC50 [4, 12] [nM]",Compound
1000 to 10000,100 to 500,≤ 100,≤ 100,100 to 500,–,–,–,–,CCOc1cc(-c2cc(NC(=O)c3ccnc(C(F)(F)F)c3)c(F)cc2C)cc(-c2ccnc(NC(C)=O)c2)n1 [Example 9]
1000 to 10000,≤ 100,≤ 100,≤ 100,1000 to 10000,–,–,–,–,Cc1ccc(NC(=O)c2ccnc(C(F)(F)F)c2)cc1-c1cccc(-c2ccnc(N)c2)c1 [Example 38]
1000 to 10000,1000 to 10000,1000 to 10000,1000 to 10000,–,–,–,–,–,Cc1ncc(NC(=O)C2CCOC2)cc1-c1nccc(-c2ccnc(NC(=O)C3CC3)c2)n1 (stereo not drawn) [Example 335]
1000 to 10000,1000 to 10000,1000 to 10000,500 to 1000,–,–,–,–,–,Cc1ncc(NC(=O)C2CCOCC2)cc1-c1ccnc(-c2ccnc(NC(=O)C3CC3)c2)n1 [Example 336]
1000 to 10000,1000 to 10000,1000 to 10000,1000 to 10000,–,–,–,–,–,Cc1ncc(NC(=O)C2CCOC2)cc1-c1ccnc(-c2ccnc(NC(=O)C3CC3)c2)n1 (stereo not drawn) [Example 337]
1000 to 10000,1000 to 10000,1000 to 10000,500 to 1000,–,–,–,–,–,Cc1ncc(NC(=O)C2CCC3(CC2)COC3)cc1-c1nccc(-c2ccnc(NC(=O)C3CC3)c2)n1 [Example 338]
1000 to 10000,1000 to 10000,1000 to 10000,100 to 500,–,–,–,–,–,Cc1ncc(NC(=O)C2CCOCC2)cc1-c1nccc(-c2ccnc(NC(=O)C3CC3)c2)n1 [Example 339]
1000 to 10000,1000 to 10000,100 to 500,≤ 100,–,–,–,–,–,Cc1ccc(NC(=O)C23CCC(C#N)(CC2)CC3)cc1-c1ccnc(-c2ccnc(NC(=O)C3CC3)c2)n1 [Example 340]
1000 to 10000,1000 to 10000,1000 to 10000,1000 to 10000,–,–,–,–,–,Cc1ncc(NC(=O)C23CCC(C#N)(CC2)CC3)cc1-c1cccc(-c2ccnc(NC(=O)C3CC3)c2)n1 [Example 342]
1000 to 10000,1000 to 10000,500 to 1000,100 to 500,–,–,–,–,–,CO[C@H]1CC[C@H](C(=O)Nc2cnc(C)c(-c3cccc(-c4ccnc(NC(=O)C5CC5)c4)n3)c2)CC1 [Example 343]
